Assay results published in patent publication US20220185764A1, “Resveratrol derivative and anti-fibrotic method using the same” (TAIZHOU HUAYUAN MEDICINAL TECH CO. LTD., priority 2020, published 2022).

What was measured:
[1] = system: bleomycin-induced pulmonary fibrosis in rats; experiment: Evaluation of anti-pulmonary fibrosis in vivo (bleomycin-induced); design: species or system SD rats; conditions: lung tissue, 14th day
Procedure: Bleomycin (batch number: 16037911, Hisun Pfizer Co., Ltd.) was prepared into a 5 mg/mL solution with normal saline; and the test compound was prepared into a solution with a 0.5% sodium carboxymethyl cellulose solution to a certain concentration for later use.
Adult male SD rats were randomly divided into a normal control group, a model group and a drug treatment group. After the animals in each group were anesthetized by intraperitoneal injection of 20% urethane (10 mL/kg), they were incised in the middle of the neck to expose the trachea. The rats in the normal control group were injected with 0.2 ml normal saline into the trachea all at once, and intragastrically administrated with 0.5% sodium carboxymethyl cellulose solution (0.5 ml/100 g, 1 time/day) the next day. The rats in the model group were injected with 0.2 ml of bleomycin solution into the trachea all at once, and simultaneously intragastrically administrated with 0.5% sodium carboxymethyl cellulose solution (0.5 ml/100 g, 1 time/day). The rats in the drug treatment group were injected with 0.2 ml bleomycin solution into the trachea all at once and simultaneously intragastrically administrated with the 0.5% sodium carboxymethyl cellulose solution of the test compound at different concentrations (0.5 ml/100 g, 1 time/day). The rats in each group were bred in an air-conditioned animal laboratory with a temperature of (23±1)° C. and a relative humidity of (45±5)%, with day and night alternating every 12 hours, and they were free to eat and drink. The rats were fasted for 12 hours on the 14th day after administration. After anesthesia, the blood of the rat was collected from the femoral artery and the lung tissue was separated. The right lung was perfused with 10% neutral formaldehyde through the trachea and then was put into stationary liquid for fixation and pathological examination. The left lung was cryopreserved in a refrigerator at -80° C. for testing the biochemical indicators.
The contents of HYP, MDA, GSH and SOD in lung tissues were detected according to the corresponding operation steps of ELISA kit (Nanjing Jiancheng Biological Company).

[2] = system: CCl4 induced liver fibrosis in rats; experiment: Evaluation of anti-liver fibrosis in vivo (CCl4 induced liver injury/fibrosis); design: species or system SD rats; conditions: test compound 10 mg/ml, 0.5 ml/100 g intragastric 1 time/day, 8 weeks; for GSH-PX / HYP / MDA / SOD: liver tissue, ELISA kit, CCl4 rats; for ALP / ALT / AST / LDH: serum, male SD rats, 40% CCl4 oil i.p. 1 time/3 days
Procedure: CCl4 was prepared into a 40% CCl4 oil with commercially available non-genetically modified peanut oil. The test compound was prepared into a 10 mg/ml solution with a 0.5% sodium carboxymethyl cellulose solution, for later use.
Adult male SD rats were randomly divided into a normal control group, a model group and a drug treatment group. The rats in the normal control group were intraperitoneally injected with peanut oil (0.3 ml/100 g, 1 time/3 days), and intragastrically administrated with 0.5% sodium carboxymethyl cellulose solution (0.5 ml/100 g, 1 time/1 day). The rats in the model group were intraperitoneally injected with 40% CCl4 oil (0.3 ml/100 g, 1 time/3 days), and intragastrically administrated with 0.5% sodium carboxymethyl cellulose solution (0.5 ml/100 g, 1 time/day). The rats in the drug treatment group were intraperitoneally injected with 40% CCl4 oil (0.3ml/100 g, 1 time/3 days), and intragastrically administrated with the 0.5% sodium carboxymethyl cellulose solution of the test compound (0.5 ml/100 g, 1 time/day). Rats in each group were bred in an air-conditioned animal laboratory with a temperature of (23±1)° C. and a relative humidity of (45±5)%, with day and night alternating every 12 hours, and they were free to eat and drink.
After being fed for 8 weeks, all the rats were fasted for 12 hours. After anesthesia, the blood of the rat was collected from the femoral artery, and the whole liver tissue was quickly weighed and frozen in liquid nitrogen for later use. 3 rats in each group were taken and their livers were cut, soaked into formalin solution for 24 h and prepared to paraffin-embedded pathological sections. The whole blood of the rats was centrifuged at 3000 r/min for 10min to obtain the separated serum, which was then frozen and stored for later use.
Alanine aminotransferase (ALT), aspartate aminotransferase (AST), alkaline phosphatase (ALP), and lactate dehydrogenase (LDH) in the serum were measured by Hitachi 7600 automatic biochemical analyzer.
The concentration of hydroxyproline (HYP) or malondialdehyde (MDA), and the activity of superoxide dismutase (SOD) or glutathione peroxidase(GSH-Px) in liver tissues were detected according to the corresponding operation steps of ELISA kit (Nanjing Jiancheng Biological Company).

liver function in mice = experiment: Evaluation of subacute toxicity (continuous administration, liver function); type: in vivo; design: AST / ALP: unit not given here; conditions: serum; male ICR mice, 200 mg/kg intragastric once a day for 4 consecutive weeks
Procedure: Male ICR mice aged 6-8 weeks were fasted for 16 hours and randomly divided into groups, 5 mice per group. The test compound was formulated into a suspension with a 0.5% sodium carboxymethyl cellulose solution, and administered intragastrically at a concentration of 200 mg/kg, once a day for 4 consecutive weeks. After the last administration, the mice were fasted for 12 hours but were free to drink water during the fasting period. Then the mice were anesthetized. Blood was taken from the abdominal aorta and serum was prepared for the determination of blood biochemical and immunological indicators. EDTA anticoagulant blood was prepared for routine blood measurement. Except for some significant increase in transaminase (ALT, AST, […]) of some drug administration groups, there were no significant differences in other indicators among the groups.

[3] = dose 50 mg/kg intragastric 1 time/day
[4] = dose 100 mg/kg intragastric 1 time/day

Row | SMILES | HYP [1, 3] | MDA [1, 3] | HYP [1, 4] | MDA [1, 4] | GSH-PX [2] | HYP [2] | MDA [2] | SOD [2] | ALP [2] | ALT [2] | AST [2] | LDH [2] | ALP (liver function in mice) | ALT (liver function in mice) | AST (liver function in mice)
1 | COc1ccc(/C=C/c2cc(OC)cc(OCCCC(C)(C)C(=O)O)c2)cc1 [Compound I-1b, 3,4′-dimethoxy-5-(4-methyl-4-carboxypentyloxy)-(E)-stilbene] | 0.71 ± 0.17 μg/mg protein | 0.91 ± 0.05 nmol/mg protein | 0.54 ± 0.12 μg/mg protein | 0.84 ± 0.09 nmol/mg protein | 204.78 ± 27.75 U/mg protein | 0.59 ± 0.06 μg/mg protein | 0.72 ± 0.12 nmol/mg protein | 29.99 ± 5.24 U/mg protein | 149.9 ± 52.9 U/L | 85.3 ± 46.4 U/L | 209.1 ± 63.2 U/L | 843.1 ± 247.9 U/L | 471.35 ± 29.88 | 47.33 ± 10.61 U/L | 161.6 ± 18.32
2 | [2H]C([2H])([2H])Oc1ccc(/C=C/c2cc(OCCCC(C)(C)C(=O)O)cc(OC([2H])([2H])[2H])c2)cc1 [Compound I-2b, 3,4′-bis-[(trideuteratedmethyl)-oxy]-5-(4-methyl-4-carboxypentyloxy)-(E)-stilbene] | 0.52 ± 0.11 μg/mg protein | 0.75 ± 0.13 nmol/mg protein | 0.45 ± 0.08 μg/mg protein | 0.76 ± 0.06 nmol/mg protein | 231.48 ± 58.72 U/mg protein | 0.58 ± 0.29 μg/mg protein | 0.70 ± 0.08 nmol/mg protein | 33.60 ± 7.64 U/mg protein | 141.6 ± 27.6 U/L | 69.1 ± 23.3 U/L | 192.4 ± 78.4 U/L | 836.5 ± 375.5 U/L | 242.83 ± 83.29 | 26.47 ± 6.79 U/L | 105.33 ± 16.85
3 | [2H]C([2H])([2H])Oc1ccc(/C=C/c2cc(OC)cc(OCCCC(C)(C)C(=O)O)c2)cc1 [Compound I-3b, 3-methoxy-4′-trideuterated methoxy-5-(4-methyl-4-carboxypentyloxy)-(E)-stilbene] | 0.51 ± 0.09 μg/mg protein | 0.81 ± 0.09 nmol/mg protein | 0.47 ± 0.10 μg/mg protein | 0.73 ± 0.06 nmol/mg protein | 194.09 ± 32.82 U/mg protein | 0.70 ± 0.61 μg/mg protein | 0.92 ± 0.43 nmol/mg protein | 31.33 ± 6.50 U/mg protein | 154.3 ± 65.0 U/L | 79.9 ± 43.8 U/L | 221.9 ± 109.4 U/L | 780.4 ± 152.3 U/L | 381.67 ± 221.42 | 36.57 ± 10.40 U/L | 138.32 ± 29.72
4 | [2H]C([2H])([2H])Oc1cc(/C=C/c2ccc(OC)cc2)cc(OCCCC(C)(C)C(=O)O)c1 [Compound I-4b, 3-trideuterated methoxy-4′-methoxy-5-(4-methyl-4-carboxypentyloxy)-(E)-stilbene] | 0.74 ± 0.19 μg/mg protein | 0.96 ± 0.19 nmol/mg protein | 0.59 ± 0.12 μg/mg protein | 0.78 ± 0.24 nmol/mg protein | 224.33 ± 2.16 U/mg protein | 0.68 ± 0.27 μg/mg protein | 0.77 ± 0.14 nmol/mg protein | 28.64 ± 6.33 U/mg protein | 140.8 ± 60.2 U/L | 91.3 ± 32.5 U/L | 233.5 ± 90.6 U/L | 771.1 ± 210.2 U/L | 258.33 ± 219.45 | 16.07 ± 2.45 U/L | 72.73 ± 15.82
5 | Oc1ccc(C=Cc2cc(O)cc(O)c2)cc1 [Resveratrol] | – | – | 0.75 ± 0.34 μg/mg protein | 0.92 ± 0.33 nmol/mg protein | 174.33 ± 40.75 U/mg protein | 0.93 ± 0.15 μg/mg protein | 1.17 ± 0.35 nmol/mg protein | 28.09 ± 4.55 U/mg protein | 203.6 ± 43.9 U/L | 96.8 ± 41.9 U/L | 205.33 ± 85.3 U/L | 846.5 ± 261.2 U/L | – | – | –
